In paper PMC13083723 (Patterns, 2026):
Structures can show the parent of a compound that is named as a salt. Where two headings read alike, the source gives them in different places.

How the values were obtained:
SARS-CoV-2 [1] = conditions: cited from earlier work; for Vero-E6 CPE inhibition %: 10 µM
SARS-CoV-2 [2] = conditions: cited from earlier work; for CaCo2 CPE inhibition %: Caco-2, 20 µM
Vero-E6 cells = experiment: cells; format: cell-based; conditions: for activation at 5 µM / activation at 10 µM / activation at 20 µM: Vero C1008, 24 h; for activation at 5 µM: read-out: PLD Effect in % 5 µM; for activation at 20 µM: read-out: PLD Effect in % 20 µM
A549-ACE2 cells = experiment: cells; format: cell-based; conditions: A549-ACE2, 24 h, read-out: PLD_Effect(%) A549-ACE2
[3] = Chlorocebus sabaeus, read-out: PLD Effect in % 10 µM
[4] = Chlorocebus sabaeus, Vero C1008, read-out: PLD EC50 µM
[5] = Chlorocebus sabaeus, read-out: PLD_Effect(%) VERO-E6

Row | Compound | Vero-E6 CPE inhibition % (SARS-CoV-2 [1]) | CaCo2 CPE inhibition % (SARS-CoV-2 [2]) | activation at 5 µM (Vero-E6 cells; Chlorocebus sabaeus) | activation at 10 µM (Vero-E6 cells; [3]) | activation at 20 µM (Vero-E6 cells; Chlorocebus sabaeus) | EC50 (Vero-E6 cells; [4]) | Vero-E6 EC50 µM (SARS-CoV-2 [1]) | CaCo2 EC50 µM (SARS-CoV-2 [2]) | PLD EC50 µM (Vero-E6 cells) | PLD Effect in % 5 µM (Vero-E6 cells) | PLD Effect in % 10 µM (Vero-E6 cells) | PLD Effect in % 20 µM (Vero-E6 cells) | EC50 (Vero-E6 cells; Chlorocebus sabaeus, Vero C1008, read-out: PLD EC50) | activation at 10 µM (A549-ACE2 cells) | activation at 10 µM (Vero-E6 cells; [5]) | EC50 (Vero-E6 cells; read-out: PLD EC50) | EC50 (SARS-CoV-2 [1]; read-out: Vero-E6 EC50)
1 | CN(C)CC/C=C1/c2ccccc2Sc2ccc(Cl)cc21 [chlorprothixene hydrochloride, reference compound] | 0.27% | 55.65% | 124% | 113% | 192% | 2.36 µM |  |  |  |  |  |  |  |  |  |  | 
2 | CN1CCN(c2ccc(C(=O)Nc3n[nH]c4ccc(Cc5cc(F)cc(F)c5)cc34)c(NC3CCOCC3)c2)CC1 [entrectinib (RXDX-101), entrectinib, reference compound] | toxic | toxic |  |  |  |  | toxic | toxic | toxic | toxic | toxic | toxic |  |  |  |  | 
3 | CCCCN(CCCC)CCC(O)c1cc2c(Cl)cc(Cl)cc2c2cc(C(F)(F)F)ccc12 (stereo not drawn) [halofantrine HCl, reference compound] | 0.17% | 91.38% | 79.8% | 87% | 114% | 1.66 µM |  |  |  |  |  |  |  |  |  |  | 
4 | Cc1ccc(C(=O)N(CCCN)[C@@H](c2nc3cc(Cl)ccc3c(=O)n2Cc2ccccc2)C(C)C)cc1 [ispinesib (SB-715992), ispinesib, reference compound] | -0.29 | 91.86% | 207% | 205% | -43.2% |  |  |  |  |  |  |  | 1.81 µM |  |  |  | 
5 | CN(C)C(=O)C(CCN1CCC(O)(c2ccc(Cl)cc2)CC1)(c1ccccc1)c1ccccc1 [loperamide hydrochloride, reference compound] | 5.03% | 58.93% | 55% | 75.4% | 86.1% |  |  |  |  |  |  |  |  |  |  |  | 
6 | CN1C[C@H](CNC(=O)OCc2ccccc2)C[C@@H]2c3cccc4c3c(cn4C)C[C@H]21 [metergoline, reference compound] | 0.05% | 54.65% | 61% | 73% | 103% |  |  |  |  |  |  |  |  |  |  |  | 
7 | NCCC(Oc1ccc(C(F)(F)F)cc1)c1ccccc1 (stereo not drawn) [norfluoxetine, reference compound] | -0.11% | 94.99% | 92.1% | 112% | 198% | 1.96 µM |  |  |  |  |  |  |  | 108% | 62.2% |  | 
8 | COc1cc(C)c2c(Oc3cccc(C(F)(F)F)c3)c(OC)cc(NC(C)CCCN)c2n1 (stereo not drawn) [tafenoquine, reference compound] | toxic | toxic |  |  |  |  | toxic | toxic | toxic | toxic | toxic | toxic |  |  |  |  | 
9 | COc1cccc([C@@H](C)NCCCc2ccccc2Cl)c1 [tecalcet, reference compound] | -0.13% | 78.10% | 59.6% | 74.3% | 102% | 2.6 µM |  |  |  |  |  |  |  | 93% | 70.1% |  | 
10 | c1cc2c(cc1C1CCCCC1)c1c3n2CCNC3CCC1 (stereo not drawn) [tetrindole, reference compound] | -0.34% | 75.19% |  |  |  |  |  |  |  | 133.51% | 133.70% | -33.00% |  |  |  | 9.59 µM | 
11 | amodiaquine dihydrochloride [reference compound] | 20.16% | 78.80% |  |  |  |  |  |  |  | 88.75% | 101.86% | 186.68% |  |  |  |  | 21.5 µM
